Results on 2 substances are retold here after publication PMC9404989, “Design and Evaluation of Short Bovine Lactoferrin-Derived Antimicrobial Peptides against Multidrug-Resistant Enterococcus faecium” (Antibiotics, 2022).

Series [1] relates to E. faecium strain C68 established biofilms. Type of series: cell-based, Enterococcus faecium. As to conditions: for established biomass reduced: at 32 µg/mL, 24 h established biofilms. How it is done:
We prepared exponential cultures of E. faecium strain C68 (adjusted to 1 × 10^8 CFU/mL) in BHI media (supplemented with 0.2% glucose) from overnight grown cultures. We added 100 µL of the bacterial culture to wells of flat-bottomed 96-well polystyrene microtiter plates (Cat No. 3595, Corning, NY, USA). We then incubated the plates at 37 °C for 24 h in static conditions to allow biofilm formation. After incubation, we carefully pipetted out the media and washed the wells with PBS (Gibco, Waltham, MA, USA) to remove loosely attached planktonic cells. We treated the established biofilms in each well with 10 µL of serially diluted 10× peptide solution, followed by the addition of 90 μL of BHI media (supplemented with 0.2% glucose). The plates were incubated for another 24 h at 37 °C before processing for biomass and live-cell contents. We quantitated the concentration of peptide that disrupts 50% of established biofilms (MBEC50).

Series [2] has as its system biofilm genes ace, esp, ebpA, ebpC of E. faecium strain C68. Description: qPCR of genes associated with biofilm formation. As to conditions: 0.5× MIC, 30 min, real-time PCR. Type of series: cell-based, Enterococcus faecium. As to the method:
For the qPCR of genes associated with biofilm formation, we followed an established protocol for RNA isolation and quantitative PCR reactions with minor modifications. We prepared exponential cultures of E. faecium strain C68 adjusted to an OD600 = 0.4 in BHI media from overnight grown cultures. After treating 10 mL of bacterial culture with 0.5× MICs of 5L and 6L for 30 min, we extracted RNA using the RNeasy mini kit (Qiagen, Hilden, Germany) according to the manufacturer’s instructions. Using the primers listed in Supplementary Table S2, we performed cDNA synthesis and quantitative reverse transcription (RT)-PCR as recommended by the manufacturer (Bio-Rad, Hercules, CA, USA). Our qPCR cycling conditions were: 95 °C for 30 s; 40 cycles at 95 °C for 5 s; 55 °C for 30 s; and finished with a melt curve analysis from 65 to 95 °C.
For orientation: Real-time PCR tracks product formation cycle by cycle.

A short description of series [3]: HPLC retention time on C18 reverse-phase column. Type of series: physicochemical. From the text:
Table 1 Physical parameters and the minimal inhibitory concentration (µg/mL) of designed peptides against E. faecium. | column: rT ^f (min)

Series [4] relates to E. faecium strain C68 persister and exponential cells. In words: SYTOX Green membrane permeability assay. Type of series: cell-based, Enterococcus faecium. As to conditions: for SYTOX membrane permeabilization of exponential cells: 16 µg/mL; for SYTOX membrane permeabilization of persister cells: peptides at 16 µg/mL, fluorescence, 1 h. As to the method: We generated E. faecium strain C68 persister cells (described in the above section) and diluted them in PBS to OD600 = 0.2. We added SYTOX Green (Molecular Probes, Life Technologies, Eugene, OR, USA) to the diluted persister suspension to a final concentration of 5 μM and incubated them for 30 min at room temperature in the dark. We added 90 µL of the dye/bacteria mixture to 10 μL of serially diluted 10× peptide concentration in a 96-well black, clear-bottom plate (Cat No. 3904, Corning, NY, USA) and recorded fluorescence on a SpectraMax i3x (Molecular Devices, San Jose, CA, USA) with excitation and emission wavelengths of 485 nm and 525 nm, respectively, for 1 h at room temperature. For comparison, we also conducted membrane permeability assays using exponential cells and followed similar protocol as described for persister cells.

For series [5], the system named is E. faecium strain C68 established biofilms. In words: Confocal microscopy of peptide-treated established biofilms (LIVE/DEAD). Type of series: cell-based, Enterococcus faecium. As to conditions: 10× MIC, 24 h established biofilms, 24 h treatment. How it is done:
We prepared exponential cultures of E. faecium strain C68 (adjusted to 1 × 10^6 CFU/mL) in BHI media (supplemented with 0.2% glucose) from overnight grown cultures. To establish biofilms, we added 1 mL of the bacterial culture to the chambers of cuvettes (borosilicate cover glass, Nunc Cat. No. 155380) and maintained them at 37 °C for 24 h under static conditions. We carefully removed the media from the wells after incubation and then washed the wells with PBS (Gibco, MD, USA) to remove loosely attached planktonic cells. We treated the established biofilms in each well with 100 µL of serially diluted 10× MIC peptide solution (5L and 6L) followed by the addition of 900 μL of BHI media (supplemented with 0.2% glucose) and incubated the cuvettes for an additional 24 h at 37 °C. After incubation, we washed the cuvettes carefully with PBS (Gibco, MD, USA) to remove the planktonic cells and stained the biofilms with 10 µL of LIVE/DEAD kit (Molecular Probes, Life Technologies, Eugene, OR, USA) according to the manufacturer’s instructions. Finally, we visualized the biofilms using a confocal microscope (Zeiss 880) and processed the data via Zen 2010 software (Carl Zeiss, Jena, Germany).

A further series deals with E. faecium WC176. Description: organism not typed. Format: cell-based, Enterococcus faecium. The conditions noted are these: WC176, 18 h. How it is done:
(§1) To determine the MICs of peptides, we used the broth microdilution method described by the Clinical and Laboratory Standards Institute. We made serial dilutions of 10× concentration (10 µL) for each peptide in duplicates in 96-well plates (Cat No. 3595, Corning, New York, NY, USA). We added 90 µL of logarithmic-phase bacteria at 5 × 10^5 CFU/mL (in BHI media) to the peptides and then incubated the plates at 37 °C for 18 h. We measured the OD600 absorbance readings using the Spectra Max i3x spectrophotometer (Molecular Devices, San Jose, CA, USA) and determined the MIC as the peptide concentration that inhibits the growth of bacteria.

Another series relates to S. aureus MW2. Description: microbe, parasite or virus in culture. Format: cell-based, Staphylococcus aureus. The conditions noted are these: MW2, 18 h. As to the method:
as §1

A further series has as its system HepG2 cells. In words: Mammalian cell cytotoxicity assay (WST-1). Format: cell-based, human. As to conditions: 24 h, WST-1, triplicates. How it is done: We used liver-derived HepG2 cells to evaluate AMP cytotoxicity behavior in mammalian cells based on an established protocol. We maintained the HepG2 cells at 37 °C in 5% CO2 in Dulbecco’s Modified Eagle Medium (DMEM) (Gibco, Waltham, MA, USA) supplemented with 10% fetal bovine serum (FBS) (Gibco, Gaithersburg, MD, USA) and 1% penicillin/streptomycin (Gibco, Gaithersburg, MD, USA). Next, we harvested and resuspended the cells in a fresh medium and distributed 50 µL ([…]) in a 96-well plate containing 50 µL of serially diluted AMPs in serum and antibiotic-free DMEM and incubated the plates at 37 °C in 5% CO2 for 24 h. Before the end of the incubation period (at the 20th hour), we added 10 µL of 2-(4-iodophenyl)-3-(4-nitrophenyl)-5-(2,4-disulfophenyl)-2H-tetrazolium (WST-1) (Roche, Mannheim, Germany) to each well and monitored the reduction of WST-1 at 450 nm using a SpectraMax i3x (Molecular Devices, San Jose, CA, USA). We performed the assays in triplicates and calculated the percentage of cell survival.

[6] abbreviates: strain C68 established biofilms, 24 h.

No end group written: not given here.

RRWLWLRRWLWR-NH2 [Peptide 5L] gave an established biomass reduced in series [1] of 75%. In series [1] (setting [6]), the “MBEC50 (established biomass)” value came out at 16 µg/mL and the “live bacteria killed within matured biofilm matrix” value is 50%. In addition, in series [2], the “downregulation of ace expression” value was found to be 8 folds, the “downregulation of ebpA expression” value is 2 fold, the “downregulation of ebpC expression” value was found to be 2 fold and the “downregulation of esp expression” value turned out to be 4 fold. The “rT (HPLC retention time)” value in series [3] is reported as 17.522 min. Moreover, in series [4], the “SYTOX membrane permeabilization of exponential cells” value is on record as “enhanced membrane permeabilization” and the “SYTOX membrane permeabilization of persister cells” value is given as “time-dependent fluorescent increment”. For the same substance, in series [5], the “killing of bacteria inside biofilms (confocal, LIVE/DEAD)” value was “killed most of the bacteria inside the biofilms”. In addition, the “MIC WC176” value in the series with E. faecium WC176 was found to be 8 µg/mL. The “MIC S. aureus MW2” value against S. aureus MW2 is > 32 µg/mL. Further, in the series with HepG2 cells, the “concentration without cell death in HepG2 cells” value is recorded as ≥ 128 µg/mL.
RRWLWRLRWLWR-NH2 [Peptide 6L] showed an established biomass reduced in series [1] of 75%. Also, the “MBEC50 (established biomass)” value in series [1] (setting [6]) was found to be 16 µg/mL. Also, in series [2], the “downregulation of ace expression” value amounted to 4 folds and the “downregulation of ebpC expression” value is reported as 2 fold. Moreover, the “rT (HPLC retention time)” value in series [3] stood at 18.603 min. In series [4], the “SYTOX membrane permeabilization of exponential cells” value is given as “enhanced membrane permeabilization” and the “SYTOX membrane permeabilization of persister cells” value is reported as “time-dependent fluorescent increment”. Also, in series [5], the “killing of bacteria inside biofilms (confocal, LIVE/DEAD)” value was “killed most of the bacteria inside the biofilms”. Also, the “MIC WC176” value in the series with E. faecium WC176 is given as 8 µg/mL. Further, the “MIC S. aureus MW2” value against S. aureus MW2 is 32 µg/mL. Also, the “concentration without cell death in HepG2 cells” value in the series with HepG2 cells is ≥ 128 µg/mL.
